Key:
Format in all cases: functional
BT-549 [1] = experiment: Growth inhibition of human BT549 cells assessed as growth inhibition at 10 uM by sulforhodamine B assay; settings: read-out: GI
M14 = experiment: Growth inhibition of human M14 cells assessed as growth inhibition at 10 uM by sulforhodamine B assay; settings: read-out: GI
MCF7 [2] = experiment: Growth inhibition of human MCF7 cells assessed as cell growth at 10 uM by sulforhodamine B assay; settings: read-out: Activity
T47D [3] = experiment: Growth inhibition of human T47D cells assessed as cell growth at 10 uM by sulforhodamine B assay; settings: read-out: Activity
SK-MEL-2 = experiment: Growth inhibition of human SK-MEL-2 cells assessed as growth inhibition at 10 uM by sulforhodamine B assay; settings: read-out: GI
UACC-257 = experiment: Growth inhibition of human UACC257 cells assessed as growth inhibition at 10 uM by sulforhodamine B assay; settings: read-out: GI
U-251 [4] = experiment: Growth inhibition of human U251 cells assessed as growth inhibition at 10 uM by sulforhodamine B assay; settings: read-out: GI
SR = experiment: Growth inhibition of human SR cells assessed as growth inhibition at 10 uM by sulforhodamine B assay; settings: read-out: GI
KM12 [5] = experiment: Growth inhibition of human KM12 cells assessed as cell growth at 10 uM by sulforhodamine B assay; settings: read-out: Activity
[6] = Growth inhibition of human HCC2998 cells assessed as growth inhibition at 10 uM by sulforhodamine B assay; settings: HCC 2998, read-out: GI
SNB-75 = experiment: Growth inhibition of human SNB75 cells assessed as growth inhibition at 10 uM by sulforhodamine B assay; settings: read-out: GI
HOP-92 = experiment: Growth inhibition of human HOP92 cells assessed as cell growth at 10 uM by sulforhodamine B assay; settings: read-out: Activity
T47D [7] = experiment: Growth inhibition of human T47D cells assessed as growth inhibition at 10 uM by sulforhodamine B assay; settings: read-out: GI
MCF7 [8] = experiment: Growth inhibition of human MCF7 cells assessed as growth inhibition at 10 uM by sulforhodamine B assay; settings: read-out: GI
U-251 [9] = experiment: Growth inhibition of human U251 cells assessed as cell growth at 10 uM by sulforhodamine B assay; settings: read-out: Activity
CAKI-1 = experiment: Growth inhibition of human CAKI-1 cells assessed as growth inhibition at 10 uM by sulforhodamine B assay; settings: read-out: GI
SK-MEL-5 = experiment: Growth inhibition of human SK-MEL-5 cells assessed as cell growth at 10 uM by sulforhodamine B assay; settings: read-out: Activity
786-0 = experiment: Growth inhibition of human 786-0 cells assessed as cell growth at 10 uM by sulforhodamine B assay; settings: read-out: Activity
BT-549 [10] = experiment: Growth inhibition of human BT549 cells assessed as cell growth at 10 uM by sulforhodamine B assay; settings: read-out: Activity
SNB-19 = experiment: Growth inhibition of human SNB19 cells assessed as growth inhibition at 10 uM by sulforhodamine B assay; settings: read-out: GI
KM12 [11] = experiment: Growth inhibition of human KM12 cells assessed as growth inhibition at 10 uM by sulforhodamine B assay; settings: read-out: GI
DU-145 = experiment: Growth inhibition of human DU145 cells assessed as growth inhibition at 10 uM by sulforhodamine B assay; settings: read-out: GI
[12] = Growth inhibition of human NCI-ADR-RES cells assessed as growth inhibition at 10 uM by sulforhodamine B assay; settings: read-out: GI
OVCAR-3 = experiment: Growth inhibition of human OVCAR3 cells assessed as cell growth at 10 uM by sulforhodamine B assay; settings: read-out: Activity
NCI-H322M = experiment: Growth inhibition of human NCI-H322M cells assessed as cell growth at 10 uM by sulforhodamine B assay; settings: read-out: Activity
SN12C = experiment: Growth inhibition of human SN12C cells assessed as cell growth at 10 uM by sulforhodamine B assay; settings: read-out: Activity
SF-539 [13] = experiment: Growth inhibition of human SF539 cells assessed as growth inhibition at 10 uM by sulforhodamine B assay; settings: read-out: GI
UO-31 = experiment: Growth inhibition of human UO31 cells assessed as growth inhibition at 10 uM by sulforhodamine B assay; settings: read-out: GI
NCI-H23 = experiment: Growth inhibition of human NCI-H23 cells assessed as cell growth at 10 uM by sulforhodamine B assay; settings: read-out: Activity
COLO 205 = experiment: Growth inhibition of human COLO205 cells assessed as growth inhibition at 10 uM by sulforhodamine B assay; settings: read-out: GI
MDA-MB-231 [14] = experiment: Growth inhibition of human MDA-MB-231 cells assessed as growth inhibition at 10 uM by sulforhodamine B assay; settings: read-out: GI
A549 = experiment: Growth inhibition of human A549/ATCC cells assessed as growth inhibition at 10 uM by sulforhodamine B assay; settings: read-out: GI
SF-268 = experiment: Growth inhibition of human SF268 cells assessed as growth inhibition at 10 uM by sulforhodamine B assay; settings: read-out: GI
MDA-MB-435 = experiment: Growth inhibition of human MDA-MB-435 cells assessed as growth inhibition at 10 uM by sulforhodamine B assay; settings: read-out: GI
NCI-H226 = experiment: Growth inhibition of human NCI-H226 cells assessed as cell growth at 10 uM by sulforhodamine B assay; settings: read-out: Activity
RXF 393 = experiment: Growth inhibition of human RXF393 cells assessed as cell growth at 10 uM by sulforhodamine B assay; settings: read-out: Activity
SF-539 [15] = experiment: Growth inhibition of human SF539 cells assessed as cell growth at 10 uM by sulforhodamine B assay; settings: read-out: Activity
UACC-62 = experiment: Growth inhibition of human UACC62 cells assessed as cell growth at 10 uM by sulforhodamine B assay; settings: read-out: Activity
HT-29 = experiment: Growth inhibition of human HT-29 cells assessed as cell growth at 10 uM by sulforhodamine B assay; settings: read-out: Activity
PC-3 [16] = experiment: Growth inhibition of human PC3 cells assessed as cell growth at 10 uM by sulforhodamine B assay; settings: read-out: Activity
SK-MEL-28 = experiment: Growth inhibition of human SK-MEL-28 cells assessed as growth inhibition at 10 uM by sulforhodamine B assay; settings: read-out: GI
NCI-H522 = experiment: Growth inhibition of human NCI-H522 cells assessed as growth inhibition at 10 uM by sulforhodamine B assay; settings: read-out: GI
MDA-MB-231 [17] = experiment: Growth inhibition of human MDA-MB-231 cells assessed as cell growth at 10 uM by sulforhodamine B assay; settings: read-out: Activity
ACHN = experiment: Growth inhibition of human ACHN cells assessed as cell growth at 10 uM by sulforhodamine B assay; settings: read-out: Activity
LOX IMVI = experiment: Growth inhibition of human LOXIMVI cells assessed as cell growth at 10 uM by sulforhodamine B assay; settings: read-out: Activity
[18] = Growth inhibition of human Hs 578T cells assessed as cell growth at 10 uM by sulforhodamine B assay; settings: read-out: Activity
[19] = Growth inhibition of human EKVX cells assessed as cell growth at 10 uM by sulforhodamine B assay; settings: read-out: Activity
K562 = experiment: Growth inhibition of human K562 cells assessed as cell growth at 10 uM by sulforhodamine B assay; settings: read-out: Activity
PC-3 [20] = experiment: Growth inhibition of human PC3 cells assessed as growth inhibition at 10 uM by sulforhodamine B assay; settings: read-out: GI

CC(C)=CC(=O)O[C@@H]1CC(C)(C)C[C@H]2C3=CC[C@@H]4[C@@]5(C)CCC(=O)C(C)(C)[C@@H]5CC[C@@]4(C)[C@]3(C)CC[C@@]12C(=O)O
inhibition of growth at 10 µM (BT-549 [1]): 30.4% | inhibition of growth at 10 µM (M14): 19.7% | growth at 10 µM (MCF7 [2]): 49.3% | growth at 10 µM (T47D [3]): 61.6% | inhibition of growth at 10 µM (SK-MEL-2): 21.8% | inhibition of growth at 10 µM (UACC-257): 26.1% | inhibition of growth at 10 µM (U-251 [4]): 61.8% | inhibition of growth at 10 µM (SR): 47.9% | growth at 10 µM (KM12 [5]): 30.4% | inhibition of growth at 10 µM [6]: 47.2% | inhibition of growth at 10 µM (SNB-75): 30% | growth at 10 µM (HOP-92): 28.4% | inhibition of growth at 10 µM (T47D [7]): 38.4% | inhibition of growth at 10 µM (MCF7 [8]): 50.7% | growth at 10 µM (U-251 [9]): 38.2% | inhibition of growth at 10 µM (CAKI-1): 53.2% | growth at 10 µM (SK-MEL-5): 47.9% | growth at 10 µM (786-0): 44.1% | growth at 10 µM (BT-549 [10]): 69.6% | inhibition of growth at 10 µM (SNB-19): 42.7% | inhibition of growth at 10 µM (KM12 [11]): 69.6% | inhibition of growth at 10 µM (DU-145): 25.6% | inhibition of growth at 10 µM [12]: 40% | growth at 10 µM (OVCAR-3): 61.3% | growth at 10 µM (NCI-H322M): 54% | growth at 10 µM (SN12C): 42.6% | inhibition of growth at 10 µM (SF-539 [13]): 35% | inhibition of growth at 10 µM (UO-31): 58% | growth at 10 µM (NCI-H23): 53.4% | inhibition of growth at 10 µM (COLO 205): 29% | inhibition of growth at 10 µM (MDA-MB-231 [14]): 28.5% | inhibition of growth at 10 µM (A549): 77.8% | inhibition of growth at 10 µM (SF-268): 27% | inhibition of growth at 10 µM (MDA-MB-435): 10.4% | growth at 10 µM (NCI-H226): 78.2% | growth at 10 µM (RXF 393): 84.6% | growth at 10 µM (SF-539 [15]): 65% | growth at 10 µM (UACC-62): 57.8% | growth at 10 µM (HT-29): 57.3% | growth at 10 µM (PC-3 [16]): 36.9% | inhibition of growth at 10 µM (SK-MEL-28): < 10% | inhibition of growth at 10 µM (NCI-H522): 42.7% | growth at 10 µM (MDA-MB-231 [17]): 71.5% | growth at 10 µM (ACHN): 43.9% | growth at 10 µM (LOX IMVI): 51.2% | growth at 10 µM [18]: 79.6% | growth at 10 µM [19]: 41.2% | growth at 10 µM (K562): 45% | inhibition of growth at 10 µM (PC-3 [20]): 63.1%

Source: ChEMBL document CHEMBL2413072, “Synthesis and in vitro anticancer studies of novel C-2 arylidene congeners of lantadenes” (2013)
